Results published in PubChem BioAssay AID1963840 (Molecular Pharmacology Branch, DTP, NCI, 2024).

Test system: 695427-040-R-J1-PDC complex spheroid viability
Assay: Anticancer human tumor 695427-040-R-J1-PDC patient-derived colon adenocarcinoma cell line growth inhibition [POLQ]
Details: for IC50: curve of first compound; for viability, T/C: stronger effect = lower value; active = viability on the fitted dose curve at most 10% of control; inactive = the rest
Procedure: Multicellular complex tumor spheroid response to Polymerase (POL) inhibitors (novobiocin, ART-558, RP6685) in combination with a variety of drugs and investigational agents in selected tumor cell lines
The POL inhibitors (novobiocin, ART-558, and RP6685) were evaluated both individually and in combination with standard of care and investigational anticancer small molecules within a complex spheroid model of solid tumors. . Complex spheroids include a stromal component modeled by human endothelial cells (HUVEC) and fibroblasts modeled by human mesenchymal stem cells (MSCs). The concentration ranges selected for each drug and investigational agent were based upon clinically achievable concentrations if the clinical Cmax of the agent was known.
Compounds. The drugs and investigational agents: novobiocin (NSC847541), ART-558 (NSC835418), RP-6685 (NSC848927), peposertib (NSC802822), ceralasertib (NSC780249), elimusertib (NSC800525), camonsertib (NSC841442), AZD-1390 (NSC803789), olaparib (NSC753686), talazoparib (NSC767125), rucaparib (NSC756644), sotorasib (NSC818433), MRTX-1133 (NSC836407), SN-38 (NSC673596), topotecan (NSC609699), epotoside (NSC141540), doxorubicin (NSC123127), gemcitabine (NSC613327), 5-fluorouracil (NSC19893), paclitaxel (NSC125973), vemurafenib (NSC761431), MSA-2 (NSC828583), SN-011 (NSC837082), adavosertib (NSC754352), prexasertib (NSC758257), carboplatin (NSC241240) and oxaliplatin (NSC266046), were obtained from the National Cancer Institute (NCI) Developmental Therapeutics Program Chemical Repository (21). The FDA-approved anticancer drug set is available from the Developmental Therapeutics Program at https://dtp.cancer.gov/organization/dscb/obtaining/. […] The stock solutions were prepared in dimethyl sulfoxide (DMSO, Sigma-Aldrich, St. Louis, MO, cat. D2650), except for the platinum compounds which were prepared in saline (Quality Biological, Gaithersburg, MD, cat. 114-055-101), at 800-fold the tested concentration and stored at -70 degrees C prior to their use. All drugs and investigational agents were tested over a range starting from a high concentration at or near the clinical Cmax and decreasing in half-log increments. If the clinical Cmax for an agent had not been determined, the highest concentration tested was 10 microM, except for SN-38, which was tested at a high concentration of 1 microM.
Cell Culture. All cells were maintained in an incubator at 37 degrees C and 5% CO2 with 95% humidity. The PDC lines were cultured according to standard operating procedures established by the NCI PDMR (https://pdmr.cancer.gov). Table 3 of the manuscript, lists the cell lines along with the number of the three cell types plated to form the mct-spheroids and media for tumor cell growth. After thawing, all PDC lines, except 997537-175-T-J1-PDC and 415267-285-R-J2-PDC, were cultured in Matrigel-coated flasks prepared with a working solution of 1X Ham's F-12 nutrient mix, without supplementation (Thermo Fisher Scientific, cat. 11765054), 100 U/mL penicillin-streptomycin (Thermo Fisher Scientific, cat. 15140122), and 2.5% Matrigel (Corning Inc., Corning, NY, cat. 354248) for the first three passages. The two PDC lines 997537-175-T-J1-PDC and 415267-285-R-J2-PDC were cultured on uncoated flasks. The 857933-349-R-J2-PDC line was cultured in 6C/Colon 1B media containing advanced DMEM/F-12 (Thermo Fisher Scientific, cat. 12634028), 10 mM HEPES (Thermo Fisher Scientific, cat. 15630080), 1X GlutaMAX supplement (Thermo Fisher Scientific, cat. 35050061), 0.1 mg/mL primocin (InvivoGen, San Diego, CA, cat. ant-pm-2), 10% defined fetal bovine serum, heat inactivated (HyClone Laboratories Inc., Logan, UT, cat. SH30070.03HI), 50% L-WRN conditioned media (ATCC, cat. CRL-3276), 1.25 mM N-Acetyl-L-cysteine (Sigma-Aldrich, cat. A9165), 10 mM nicotinamide (Sigma-Aldrich, cat. N0636), 1X B-27 supplement (Thermo Fisher Scientific, cat. 17504044), 1X N-2 supplement (Thermo Fisher Scientific, cat. […]

[1] = second compound 0.0316 µM, first compound 0.0316 µM
[2] = second compound 0.0316 µM, first compound 0.1 µM
[3] = second compound 0.0316 µM, first compound 0.316 µM
[4] = second compound 0.0316 µM, first compound 1 µM
[5] = second compound 0.1 µM, first compound 0.0316 µM
[6] = second compound 0.1 µM, first compound 0.1 µM
[7] = second compound 0.1 µM, first compound 0.316 µM
[8] = second compound 0.1 µM, first compound 1 µM
[9] = second compound 0.316 µM, first compound 0.0316 µM
[10] = second compound 0.316 µM, first compound 0.1 µM
[11] = second compound 0.316 µM, first compound 0.316 µM
[12] = second compound 0.316 µM, first compound 1 µM
[13] = second compound 1 µM, first compound 0.0316 µM
[14] = second compound 1 µM, first compound 0.1 µM
[15] = second compound 1 µM, first compound 0.316 µM
[16] = second compound 1 µM, first compound 1 µM
[17] = second compound 3.16 µM, first compound 0.0316 µM
[18] = second compound 3.16 µM, first compound 0.1 µM
[19] = second compound 3.16 µM, first compound 0.316 µM
[20] = second compound 3.16 µM, first compound 1 µM
[21] = second compound 10 µM, first compound 0.0316 µM
[22] = second compound 10 µM, first compound 0.1 µM
[23] = second compound 10 µM, first compound 0.316 µM
[24] = second compound 10 µM, first compound 1 µM
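Also: spheroids exposed to compounds for seven days.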

COc1ccc([C@@H](O)c2cc(-c3ncnc4cc(N5CCOCC5)ccc34)c(F)cc2Cl)nn1 + COC1C(OC(N)=O)C(O)C(Oc2ccc3c(O)c(NC(=O)c4ccc(O)c(CC=C(C)C)c4)c(=O)oc3c2C)OC1(C)C
inactive: viability, T/C [1] 104% | viability, T/C [2] 99.5% | viability, T/C [3] 105% | viability, T/C [4] 92.9% | viability, T/C (second compound 0.0316 µM, first compound 3.16 µM) 75.5% | viability, T/C (second compound 0.0316 µM, first compound 10 µM) 56% | viability, T/C [5] 114% | viability, T/C [6] 104% | viability, T/C [7] 104% | viability, T/C [8] 94.2% | viability, T/C (second compound 0.1 µM, first compound 3.16 µM) 76.7% | viability, T/C (second compound 0.1 µM, first compound 10 µM) 57.9% | viability, T/C [9] 127% | viability, T/C [10] 99.1% | viability, T/C [11] 99% | viability, T/C [12] 89.9% | viability, T/C (second compound 0.316 µM, first compound 3.16 µM) 76.8% | viability, T/C (second compound 0.316 µM, first compound 10 µM) 51.5% | viability, T/C [13] 94.9% | viability, T/C [14] 92.3% | viability, T/C [15] 98.3% | viability, T/C [16] 91.5% | viability, T/C (second compound 1 µM, first compound 3.16 µM) 82% | viability, T/C (second compound 1 µM, first compound 10 µM) 54.5% | viability, T/C [17] 105% | viability, T/C [18] 101% | viability, T/C [19] 97% | viability, T/C [20] 98.4% | viability, T/C (second compound 3.16 µM, first compound 3.16 µM) 83.5% | viability, T/C (second compound 3.16 µM, first compound 10 µM) 57.6% | viability, T/C [21] 101% | viability, T/C [22] 89.6% | viability, T/C [23] 94.4% | viability, T/C [24] 101% | viability, T/C (second compound 10 µM, first compound 3.16 µM) 76.8% | viability, T/C (second compound 10 µM, first compound 10 µM) 51.7%
> 10 µM: IC50 (second compound 0.0316 µM) | IC50 (second compound 0.1 µM) | IC50 (second compound 0.316 µM) | IC50 (second compound 1 µM) | IC50 (second compound 3.16 µM) | IC50 (second compound 10 µM)

COc1cccc(OCCCN)c1-c1cc(Nc2cnc(C#N)cn2)n[nH]1 + COC1C(OC(N)=O)C(O)C(Oc2ccc3c(O)c(NC(=O)c4ccc(O)c(CC=C(C)C)c4)c(=O)oc3c2C)OC1(C)C
0.391 µM: IC50 (second compound 1 µM)
0.46 µM: IC50 (second compound 0.316 µM)
0.449 µM: IC50 (second compound 3.16 µM)
inactive: viability, T/C (second compound 0.0316 µM, first compound 0.00316 µM) 103% | viability, T/C (second compound 0.0316 µM, first compound 0.01 µM) 94.2% | viability, T/C [1] 81.1% | viability, T/C [2] 70.2% | viability, T/C [3] 50.3% | viability, T/C [4] 39.7% | viability, T/C (second compound 0.1 µM, first compound 0.00316 µM) 109% | viability, T/C (second compound 0.1 µM, first compound 0.01 µM) 84.2% | viability, T/C [5] 81% | viability, T/C [6] 69.7% | viability, T/C [7] 56% | viability, T/C [8] 42.2% | viability, T/C (second compound 0.316 µM, first compound 0.00316 µM) 101% | viability, T/C (second compound 0.316 µM, first compound 0.01 µM) 93% | viability, T/C [9] 85% | viability, T/C [10] 73.1% | viability, T/C [11] 54% | viability, T/C [12] 39.2% | viability, T/C (second compound 1 µM, first compound 0.00316 µM) 102% | viability, T/C (second compound 1 µM, first compound 0.01 µM) 93.7% | viability, T/C [13] 83.7% | viability, T/C [14] 66.3% | viability, T/C [15] 53.9% | viability, T/C [16] 38.1% | viability, T/C (second compound 3.16 µM, first compound 0.00316 µM) 107% | viability, T/C (second compound 3.16 µM, first compound 0.01 µM) 95.1% | viability, T/C [17] 86.3% | viability, T/C [18] 67.2% | viability, T/C [19] 56.3% | viability, T/C [20] 38.7% | viability, T/C (second compound 10 µM, first compound 0.00316 µM) 100% | viability, T/C (second compound 10 µM, first compound 0.01 µM) 84.9% | viability, T/C [21] 81.1% | viability, T/C [22] 68.9% | viability, T/C [23] 55.2% | viability, T/C [24] 39.8%
0.465 µM: IC50 (second compound 10 µM)
0.386 µM: IC50 (second compound 0.0316 µM)
0.535 µM: IC50 (second compound 0.1 µM)
